pEC50: −log10 of the molar value.
Target: T1, KCNQ2 potassium channels (CHO-KCNQ2 cells) (Homo sapiens, UniProt O43526)
T1 construct: expressed in transfected cells; host or cells: CHO cells stably expressing KCNQ2 (G418 selection in the culture medium)
Assay: Potassium ion channel opener activity test (FDSS/μCELL detection, FluxOR thallium flux)
Format: cell-based
Details: 8 concentrations 0.045-100 μM; for pEC50: 3 replicate wells; for Emax: ratio at 180 s, read-out: Maximum agonistic rate (%)
Procedure: Example A1 Potassium Ion Channel Opener Activity Test (FDSS/μ CELL Detection)
Cell preparation: CHO-KCNQ2 cells were cultured in a 175 cm^2 culture flask, and when the cell density grew to 60˜80%, the culture medium was removed and the cells were washed once with 7 mL PBS (Phosphate Buffered Saline), and then 3 mL of 0.25% Trypsin was added for digestion. After completion of digestion, 7 mL of culture medium (90% DMEM/F12+10% FBS+500 μg/mL G418) was added to neutralize, and centrifuged at 800 rpm for 3 min; the supernatant was aspirated, then 5 mL of culture medium was added to resuspend the cells, and the cells were counted.
Cell spreading: according to the cell counting results, the density was adjusted to 3×10^4 cells/well. After standing at room temperature for 30 minutes, the cells were placed in a CO2 incubator at 37° C. overnight, and incubated for 16-18 hours to reach a cell density of about 80%.
Fluorescent dye incubation: Cell culture solution was discarded, 80 μL/well of loading buffer was added and the cells were incubated for 60 minutes at room temperature and protected from light.
Compound incubation: Loading buffer was discarded, 80 μL/well of prepared compound solution was added, and the cells were incubated for 20 min at room temperature and protected from light.
Fluorescence data acquisition: Real-time fluorescence signal recording was performed using an FDSS/μCELL instrument with an excitation wavelength of 480 nm and an emission wavelength of 540 nm, and the signal was recorded once per second. 10 seconds of the baseline was recorded, then 20 μL/well of stimulation buffer was added, and the recording was continued until the end of 180 seconds.
20 mM stock solution of compound in DMSO was prepared, 10 μL of 20 mM compound stock solution was taken into 20 μL of DMSO solution, and a 3-fold serial dilution was performed to form 8 intermediate concentrations; then the intermediate concentrations of the compounds were taken respectively into test buffer, and a 200-fold dilution was performed to obtain the final concentration to be tested, and 80 μL was taken and added to the assay plate.
The highest test concentration was 100 μM, and there was a total of 8 concentrations, i.e., 100, 33.33, 11.11, 3.70, 1.23, 0.41, 0.137, 0.045 μM, respectively, with 3 replicate wells for each concentration.
The experimental data were analyzed by Excel 2007, GraphPad Prism 5.0 software, and the ratio of 180 s was counted to calculate the agonistic effect. The agonistic effect of the compound was calculated by the following equation:
• Environment: Temperature ˜25° C. • Reagent: FluxOR™ detection kit (Invitrogen, Cat #F0017) • The experimental data in the report must meet the following criteria: Z′ Factor>0.5 2. Results: See Table 1 for details, wherein a smaller EC50 indicates a higher activity of the corresponding compound.

T1 sequence (O43526 whole entry): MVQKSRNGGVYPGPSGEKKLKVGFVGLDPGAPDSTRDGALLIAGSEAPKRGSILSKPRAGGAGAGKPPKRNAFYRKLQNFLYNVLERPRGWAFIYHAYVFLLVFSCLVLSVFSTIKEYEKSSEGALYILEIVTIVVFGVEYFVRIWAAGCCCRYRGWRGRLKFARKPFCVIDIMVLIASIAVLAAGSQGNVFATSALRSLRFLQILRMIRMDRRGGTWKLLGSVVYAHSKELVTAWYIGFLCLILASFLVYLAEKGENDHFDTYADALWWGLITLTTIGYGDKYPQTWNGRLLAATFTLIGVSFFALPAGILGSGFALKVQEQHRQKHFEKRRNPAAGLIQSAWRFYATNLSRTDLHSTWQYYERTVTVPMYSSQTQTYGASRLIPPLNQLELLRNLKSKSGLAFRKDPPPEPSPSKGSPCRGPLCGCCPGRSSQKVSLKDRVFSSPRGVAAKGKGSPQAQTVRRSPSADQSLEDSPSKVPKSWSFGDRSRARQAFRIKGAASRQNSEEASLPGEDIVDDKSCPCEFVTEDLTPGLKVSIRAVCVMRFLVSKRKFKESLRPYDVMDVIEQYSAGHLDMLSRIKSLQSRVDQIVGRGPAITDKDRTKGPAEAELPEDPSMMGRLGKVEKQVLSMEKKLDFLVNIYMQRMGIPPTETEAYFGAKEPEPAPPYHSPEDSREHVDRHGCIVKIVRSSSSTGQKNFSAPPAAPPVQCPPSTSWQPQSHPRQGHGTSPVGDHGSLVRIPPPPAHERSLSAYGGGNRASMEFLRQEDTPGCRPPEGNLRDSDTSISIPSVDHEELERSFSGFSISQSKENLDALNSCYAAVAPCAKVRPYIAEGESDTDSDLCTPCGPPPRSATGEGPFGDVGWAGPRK

pEC50	Emax [%]	SMILES
7.07	45.6	Cc1cc(N2CCc3cc(C(F)(F)F)ccc3C2)cc(C)c1NC(=O)CC1(C)CC1 [Compound 3001]
6.24	28.1	Cc1cc(N2CCCCc3cc(C(F)(F)F)ccc32)cc(C)c1NC(=O)CC1(C)CC1 [Compound 3002]
7.74	39.6	Cc1cc(N2CCOc3cc(C(F)(F)F)ccc3C2)cc(C)c1NC(=O)CC1(C)CC1 [Compound 3003]
6.24	17.7	Cc1cc(N2CCCOc3cc(C(F)(F)F)ccc32)cc(C)c1NC(=O)CC1(C)CC1 [Compound 3004]
6.96	46.7	Cc1cc(N2CCc3sc(F)cc3C2)cc(C)c1NC(=O)CC1(C)CC1 [Compound 3005]
6.57	34.9	Cc1cc(N2CCn3cccc3C2)cc(C)c1NC(=O)CC1(C)CC1 [Compound 3006]
7.52	41.5	Cc1ccc2c(c1)CCCCN2c1cc(C)c(NC(=O)CC2(C)CC2)c(C)c1 [Compound 3007]
7.77	40.9	Cc1cc(N2CCOc3cc(F)ccc3C2)cc(C)c1NC(=O)CC1(C)CC1 [Compound 3008]
7.15	36.1	Cc1ccc2c(c1)OCCCN2c1cc(C)c(NC(=O)CC2(C)CC2)c(C)c1 [Compound 3009]
5.43	35.3	Cc1cc(N2CCCn3cccc3C2)cc(C)c1NC(=O)CC1(C)CC1 [Compound 3010]
8.37	49.4	Cc1cc(N2CCSc3ccccc3C2)cc(C)c1NC(=O)CC1(C)CC1 [Compound 3011]

Reference: US20250144115A1, “AMIDE COMPOUND AS POTASSIUM CHANNEL REGULATOR, AND PREPARATION THEREFOR AND USE THEREOF” (Shanghai Zhimeng Biopharma, Inc., priority 2022, published 2025)
